Data as given in patent US6358885B1, “Substituted phenylheterocyclic herbicides” (Mississippi State University, priority 1992, dated 2002).

Assays:
ryegrass = experiment: Test C preemergence/postemergence greenhouse plant response rating 0 to 100; type: in vivo, Lolium multiflorum; conditions: for Plant response rating Ryegrass: 62 g/ha, 0 to 100 scale
How it was run: (§1)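 Compounds in non-phytotoxic solvent applied preemergence to sandy loam one day after planting, postemergence at the 1–4 leaf stage, or to ~2.5 cm floodwater over silt loam.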

morningglory = experiment: Test B preemergence/postemergence greenhouse plant response rating 0 to 10; type: in vivo, Ipomoea hederacea; conditions: 0 to 10 scale
How it was run: (§2)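 Postemergence treatment of plants two to eighteen cm tall ran alongside preemergence treatment of planted seed, each using compound in a non-phytotoxic solvent.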

velvetleaf = experiment: as above; type: in vivo, Abutilon theophrasti; conditions: 0 to 10 scale
How it was run: as §2

soybean [1] = experiment: Test C preemergence/postemergence greenhouse plant response rating 0 to 100; type: in vivo, Glycine max
How it was run: as §1

barley [2] = experiment: as above; type: in vivo, Hordeum vulgare; conditions: for Plant response rating Barley Igri: 62 g/ha, 0 to 100 scale
How it was run: as §1

wild buckwheat = experiment: Test B preemergence/postemergence greenhouse plant response rating 0 to 10; type: in vivo, Polygonum convolvulus; conditions: 0 to 10 scale
How it was run: as §2

sorghum = experiment: as above; type: in vivo, Sorghum bicolor; conditions: 0 to 10 scale
How it was run: as §2

blackgrass = experiment: Test C preemergence/postemergence greenhouse plant response rating 0 to 100; type: in vivo, Alopecurus myosuroides; conditions: for Plant response rating, Blackgrass: 62 g/ha, 0 to 100 scale
How it was run: as §1

chickweed [3] = experiment: as above; type: in vivo, Stellaria media; conditions: POSTEMERGENCE
How it was run: as §1

barley [4] = experiment: Test B preemergence/postemergence greenhouse plant response rating 0 to 10; type: in vivo, Hordeum vulgare; conditions: 0 to 10 scale
How it was run: as §2

soybean [5] = experiment: as above; type: in vivo, Glycine max; conditions: 0 to 10 scale
How it was run: as §2

sugar beet = experiment: as above; type: in vivo, Beta vulgaris; conditions: 0 to 10 scale
How it was run: as §2

pigweed = experiment: Test C preemergence/postemergence greenhouse plant response rating 0 to 100; type: in vivo, Amaranthusretroflexus; conditions: for Plant response rating Pigweed: 62 g/ha, 0 to 100 scale
How it was run: as §1

rape = experiment: as above; type: in vivo, Brassica napus; conditions: for Plant response rating, Rape: 62 g/ha, 0 to 100 scale
How it was run: as §1

bedstraw = experiment: Test B preemergence/postemergence greenhouse plant response rating 0 to 10; type: in vivo, Galium aparine; conditions: 0 to 10 scale
How it was run: as §2

cocklebur = experiment: as above; type: in vivo, Xanthium pensylvanicum; conditions: 0 to 10 scale
How it was run: as §2

chickweed [6] = experiment: as above; type: in vivo, Stellaria media; conditions: 0 to 10 scale
How it was run: as §2

umbrella sedge = experiment: Test C flood test plant response rating 0 to 100; type: in vivo, Cyperus difformis
How it was run: as §1

CC(C)Oc1cc(-c2nn3c(c2Br)CCCC3)c(F)cc1Cl [Compound 38]
Plant response rating Ryegrass (ryegrass; POSTEMERGENCE): 50
Plant response rating (0 to 100), Ryegrass (ryegrass; POSTEMERGENCE, Rate 1 g/ha): 0
Plant response rating (0 to 100), Ryegrass (ryegrass; POSTEMERGENCE, Rate 4 g/ha): 10
Plant response rating Ryegrass (ryegrass; PREEMERGENCE): 0
Plant response rating (0 to 100), Ryegrass (ryegrass; PREEMERGENCE, Rate 1 g/ha): 0
Plant response rating (0 to 100), Ryegrass (ryegrass; PREEMERGENCE, Rate 4 g/ha): 0
Plant response rating (0 to 100), Ryegrass (ryegrass; Rate 16 g/ha, POSTEMERGENCE): 30
Plant response rating (0 to 100), Ryegrass (ryegrass; Rate 16 g/ha, PREEMERGENCE): 0
Plant response rating, Morningglory (morningglory; POSTEMERGENCE, Rate 50 g/ha): 8
Plant response rating, Morningglory (morningglory; PREEMERGENCE, Rate 50 g/ha): 0
Plant response rating, Morningglory (morningglory; Rate 200 g/ha, POSTEMERGENCE): 9
Plant response rating, Morningglory (morningglory; Rate 200 g/ha, PREEMERGENCE): 4
Plant response rating, Velvetleaf (velvetleaf; POSTEMERGENCE, Rate 50 g/ha): 6
Plant response rating, Velvetleaf (velvetleaf; PREEMERGENCE, Rate 50 g/ha): 0
Plant response rating, Velvetleaf (velvetleaf; Rate 200 g/ha, POSTEMERGENCE): 10
Plant response rating, Velvetleaf (velvetleaf; Rate 200 g/ha, PREEMERGENCE): 7
Plant response rating, Soybean (soybean [1]; POSTEMERGENCE, 62 g/ha, 0 to 100 scale): 60
Plant response rating (0 to 100), Soybean (soybean [1]; POSTEMERGENCE, Rate 1 g/ha): 20
Plant response rating (0 to 100), Soybean (soybean [1]; POSTEMERGENCE, Rate 4 g/ha): 20
Plant response rating (0 to 100), Soybean (soybean [1]; PREEMERGENCE, Rate 1 g/ha): 0
Plant response rating (0 to 100), Soybean (soybean [1]; PREEMERGENCE, Rate 4 g/ha): 0
Plant response rating (0 to 100), Soybean (soybean [1]; Rate 16 g/ha, POSTEMERGENCE): 40
Plant response rating (0 to 100), Soybean (soybean [1]; Rate 16 g/ha, PREEMERGENCE): 0
Plant response rating Barley Igri (barley [2]; POSTEMERGENCE): 50
Plant response rating (0 to 100), Barley Igri (barley [2]; POSTEMERGENCE, Rate 1 g/ha): 10
Plant response rating Barley Igri (barley [2]; PREEMERGENCE): 0
Plant response rating (0 to 100), Barley Igri (barley [2]; PREEMERGENCE, Rate 1 g/ha): 0
Plant response rating (0 to 100), Barley Igri (barley [2]; PREEMERGENCE, Rate 4 g/ha): 0
Plant response rating (0 to 100), Barley Igri (barley [2]; Rate 4 g/ha, POSTEMERGENCE): 30
Plant response rating (0 to 100), Barley Igri (barley [2]; Rate 16 g/ha, POSTEMERGENCE): 40
Plant response rating (0 to 100), Barley Igri (barley [2]; Rate 16 g/ha, PREEMERGENCE): 0
Plant response rating, Wild buckwheat (wild buckwheat; POSTEMERGENCE, Rate 50 g/ha): 10
Plant response rating, Wild buckwheat (wild buckwheat; PREEMERGENCE, Rate 50 g/ha): 8
Plant response rating, Wild buckwheat (wild buckwheat; Rate 200 g/ha, POSTEMERGENCE): 10
Plant response rating, Wild buckwheat (wild buckwheat; Rate 200 g/ha, PREEMERGENCE): 10
Plant response rating, Sorghum (sorghum; POSTEMERGENCE, Rate 50 g/ha): 5
Plant response rating, Sorghum (sorghum; PREEMERGENCE, Rate 50 g/ha): 0
Plant response rating, Sorghum (sorghum; Rate 200 g/ha, POSTEMERGENCE): 6
Plant response rating, Sorghum (sorghum; Rate 200 g/ha, PREEMERGENCE): 1
Plant response rating, Blackgrass (blackgrass; POSTEMERGENCE): 40
Plant response rating (0 to 100), Blackgrass (blackgrass; POSTEMERGENCE, Rate 1 g/ha): 10
Plant response rating, Blackgrass (blackgrass; PREEMERGENCE): 30
Plant response rating (0 to 100), Blackgrass (blackgrass; PREEMERGENCE, Rate 1 g/ha): 0
Plant response rating (0 to 100), Blackgrass (blackgrass; PREEMERGENCE, Rate 4 g/ha): 0
Plant response rating (0 to 100), Blackgrass (blackgrass; Rate 4 g/ha, POSTEMERGENCE): 10
Plant response rating (0 to 100), Blackgrass (blackgrass; Rate 16 g/ha, POSTEMERGENCE): 20
Plant response rating (0 to 100), Blackgrass (blackgrass; Rate 16 g/ha, PREEMERGENCE): 0
Plant response rating, Chickweed (chickweed [3]; 62 g/ha, 0 to 100 scale): 30
Plant response rating (0 to 100), Chickweed (chickweed [3]; Rate 1 g/ha): 0
Plant response rating (0 to 100), Chickweed (chickweed [3]; Rate 4 g/ha): 10
Plant response rating (0 to 100), Chickweed (chickweed [3]; Rate 16 g/ha): 20
Plant response rating, Barley (barley [4]; POSTEMERGENCE, Rate 50 g/ha): 4
Plant response rating, Barley (barley [4]; POSTEMERGENCE, Rate 200 g/ha): 6
Plant response rating, Barley (barley [4]; PREEMERGENCE, Rate 50 g/ha): 0
Plant response rating, Barley (barley [4]; Rate 200 g/ha, PREEMERGENCE): 1
Plant response rating, Soybean (soybean [5]; POSTEMERGENCE, Rate 50 g/ha): 5
Plant response rating, Soybean (soybean [5]; PREEMERGENCE, Rate 50 g/ha): 0
Plant response rating, Soybean (soybean [5]; Rate 200 g/ha, POSTEMERGENCE): 7
Plant response rating, Soybean (soybean [5]; Rate 200 g/ha, PREEMERGENCE): 4
Plant response rating, Sugar beet (sugar beet; POSTEMERGENCE, Rate 50 g/ha): 10
Plant response rating, Sugar beet (sugar beet; PREEMERGENCE, Rate 50 g/ha): 8
Plant response rating, Sugar beet (sugar beet; Rate 200 g/ha, POSTEMERGENCE): 10
Plant response rating, Sugar beet (sugar beet; Rate 200 g/ha, PREEMERGENCE): 10
Plant response rating Pigweed (pigweed; POSTEMERGENCE): 100
Plant response rating (0 to 100), Pigweed (pigweed; POSTEMERGENCE, Rate 1 g/ha): 10
Plant response rating (0 to 100), Pigweed (pigweed; POSTEMERGENCE, Rate 4 g/ha): 30
Plant response rating Pigweed (pigweed; PREEMERGENCE): 100
Plant response rating (0 to 100), Pigweed (pigweed; PREEMERGENCE, Rate 1 g/ha): 0
Plant response rating (0 to 100), Pigweed (pigweed; PREEMERGENCE, Rate 4 g/ha): 0
Plant response rating (0 to 100), Pigweed (pigweed; Rate 16 g/ha, POSTEMERGENCE): 100
Plant response rating (0 to 100), Pigweed (pigweed; Rate 16 g/ha, PREEMERGENCE): 90
Plant response rating, Rape (rape; POSTEMERGENCE): 80
Plant response rating (0 to 100), Rape (rape; POSTEMERGENCE, Rate 1 g/ha): 20
Plant response rating (0 to 100), Rape (rape; POSTEMERGENCE, Rate 4 g/ha): 30
Plant response rating, Rape (rape; PREEMERGENCE): 30
Plant response rating (0 to 100), Rape (rape; PREEMERGENCE, Rate 1 g/ha): 0
Plant response rating (0 to 100), Rape (rape; PREEMERGENCE, Rate 4 g/ha): 10
Plant response rating (0 to 100), Rape (rape; Rate 16 g/ha, POSTEMERGENCE): 40
Plant response rating (0 to 100), Rape (rape; Rate 16 g/ha, PREEMERGENCE): 20
Plant response rating, Bedstraw (bedstraw; POSTEMERGENCE, Rate 200 g/ha): 10
Plant response rating, Bedstraw (bedstraw; PREEMERGENCE, Rate 50 g/ha): 0
Plant response rating, Bedstraw (bedstraw; Rate 200 g/ha, PREEMERGENCE): 7
Plant response rating, Cocklebur (cocklebur; POSTEMERGENCE, Rate 50 g/ha): 8
Plant response rating, Cocklebur (cocklebur; POSTEMERGENCE, Rate 200 g/ha): 10
Plant response rating, Cocklebur (cocklebur; PREEMERGENCE, Rate 50 g/ha): 0
Plant response rating, Cocklebur (cocklebur; Rate 200 g/ha, PREEMERGENCE): 5
Plant response rating, Chickweed (chickweed [6]; POSTEMERGENCE, Rate 50 g/ha): 9
Plant response rating, Chickweed (chickweed [6]; POSTEMERGENCE, Rate 200 g/ha): 10
Plant response rating, Chickweed (chickweed [6]; PREEMERGENCE, Rate 50 g/ha): 0
Plant response rating, Chickweed (chickweed [6]; Rate 200 g/ha, PREEMERGENCE): 0
Plant response rating (0 to 100), Umbrella sedge (umbrella sedge; POSTEMERGENCE section, flood test, Rate 1 g/ha): 0
Plant response rating (0 to 100), Umbrella sedge (umbrella sedge; POSTEMERGENCE section, flood test, Rate 4 g/ha): 0
Plant response rating (0 to 100), Umbrella sedge (umbrella sedge; Rate 16 g/ha, under POSTEMERGENCE head (flood test species)): 20
Plant response rating Umbrella sedge (umbrella sedge; flood test species listed under POSTEMERGENCE, 62 g/ha, 0 to 100 scale): 50
